Data on two compounds can be found in patent US7485659B2, “Anticancer compositions, and methods of making and using the same” (Faustus Forschungs CIE, Translational Cancer Research GmbH, priority 2001, dated 2009).

Data set [1] deals with human line of tumor cells SW480 (colon carcinoma). In words: MTT assay, continuous 96 hour exposure, SW480. In kind it is cell-based. On the procedure:
(§1) The cytotoxic effects of KP 1019 and combinations of KP 1339 and indazol in different molar ratios (administered as solution in the conventional cell culture medium MEM, supplemented with 10% fetal bovine serum, without the addition of organic solvents or dissolving agents) have been comparatively investigated on the human line of tumor cells SW480 (colon carcinoma) and CH1 (ovarian carcinoma) in the MTT assay under the application of a continuous 96 hour exposure to the active substance.
On the technique in general: Tetrazolium assays rely on reduction of a dye to a coloured formazan, in cell work by metabolically active cells.

In data set [2] the test system is human line of tumor cells CH1 (ovarian carcinoma). In words: MTT assay, continuous 96 hour exposure, CH1. In kind it is cell-based. On the procedure: as §1
The nature of a further data set: Water-solubility. In kind it is physicochemical.
Data set [3] deals with stem cells of human solid tumors and continuous human tumor cell lines. In words: In vitro antiproliferative experiments on stem cells of human solid tumors (nude mice xenografts) and continuous human tumor cell lines. It counts as cell-based. The following applies: stem cells of human solid tumors bred as nude mice xenografts. (A xenograft is tissue or cells of one species grown in another, often human tumour cells in immunodeficient mice.)

SMILES strings stand for the structures. Some results are limits rather than exact numbers.

On to `c1ccc2[nH]ncc2c1` [Indazol, indazol, reference compound], for which the “concentration at which a cytotoxic effect is exhibited” value in data set [1] and in data set [2] was over 1000 µM throughout.
On to `[Cl][Ru-]([Cl])([Cl])[Cl].[Na+].c1ccc2[nH]ncc2c1.c1ccc2[nH]ncc2c1` [KP 1339, sodium trans-[RuCl4(ind)2]], for which the “tumor inhibiting (cytotoxic) activity compared with KP 1019” value in data set [1] (MEM + 10% fetal bovine serum) and in data set [2] (MEM + 10% fetal bovine serum) was “three to four times less effective than KP 1019” throughout. For the same compound, in “Water-solubility”, the “water-solubility (in words)” value was “easily water-soluble”. In addition, the “water-solubility relative to KP 1019” value in the data set “Water-solubility” (compared with KP 1019) was “more than thirty times higher than KP 1019”. Moreover, the “antiproliferative effectiveness in vitro compared with KP 1019” value in data set [3] is reported as “clearly weaker antiproliferative effectiveness than KP 1019”.
